Measured values published in PubChem BioAssay (NCI).
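Following 48 hours of exposure in 96-well plates, responses at five concentrations were used to interpolate endpoints linearly. TGI marks complete inhibition of growth.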

Experiments:
Test in all cases: NCI-60 cell line screen, 48 h
HL-60(TB) leukemia = test system: HL-60(TB) leukemia
UACC-62 melanoma = test system: UACC-62 melanoma
BT-549 breast = test system: BT-549 breast
786-0 renal = test system: 786-0 renal
KM12 colon = test system: KM12 colon
NCI-H226 lung = test system: NCI-H226 lung
HCC-2998 colon = test system: HCC-2998 colon
MOLT-4 leukemia = test system: MOLT-4 leukemia
NCI/ADR-RES ovarian = test system: NCI/ADR-RES ovarian
SF-268 CNS = test system: SF-268 CNS
NCI-H23 lung = test system: NCI-H23 lung
SN12C renal = test system: SN12C renal
HCT-15 colon = test system: HCT-15 colon
MDA-MB-231 breast = test system: MDA-MB-231 breast
MDA-MB-435 = test system: MDA-MB-435
M14 melanoma = test system: M14 melanoma
PC-3 prostate = test system: PC-3 prostate
TK-10 renal = test system: TK-10 renal
SK-MEL-28 melanoma = test system: SK-MEL-28 melanoma
U251 CNS = test system: U251 CNS
MCF7 breast = test system: MCF7 breast
RPMI-8226 leukemia = test system: RPMI-8226 leukemia
NCI-H460 lung = test system: NCI-H460 lung
OVCAR-8 ovarian = test system: OVCAR-8 ovarian
MALME-3M melanoma = test system: MALME-3M melanoma
UACC-257 melanoma = test system: UACC-257 melanoma
LOX IMVI melanoma = test system: LOX IMVI melanoma
HCT-116 colon = test system: HCT-116 colon
MDA-N = test system: MDA-N
NCI-H522 lung = test system: NCI-H522 lung
IGROV1 ovarian = test system: IGROV1 ovarian
RXF 393 renal = test system: RXF 393 renal
UO-31 renal = test system: UO-31 renal
HT29 colon = test system: HT29 colon
HS 578T breast = test system: HS 578T breast
A549 NSCLC = test system: A549 NSCLC
A498 renal = test system: A498 renal
COLO 205 colon = test system: COLO 205 colon
SK-MEL-5 melanoma = test system: SK-MEL-5 melanoma
K-562 leukemia = test system: K-562 leukemia
SNB-19 CNS = test system: SNB-19 CNS
EKVX NSCLC = test system: EKVX NSCLC
SW-620 colon = test system: SW-620 colon
SR leukemia = test system: SR leukemia
OVCAR-5 ovarian = test system: OVCAR-5 ovarian
OVCAR-4 ovarian = test system: OVCAR-4 ovarian
DU-145 prostate = test system: DU-145 prostate
OVCAR-3 ovarian = test system: OVCAR-3 ovarian
SK-MEL-2 melanoma = test system: SK-MEL-2 melanoma
SNB-75 CNS = test system: SNB-75 CNS
CAKI-1 renal = test system: CAKI-1 renal
T-47D breast = test system: T-47D breast
CCRF-CEM leukemia = test system: CCRF-CEM leukemia
SF-539 CNS = test system: SF-539 CNS
SK-OV-3 ovarian = test system: SK-OV-3 ovarian
HOP-92 NSCLC = test system: HOP-92 NSCLC
HOP-62 NSCLC = test system: HOP-62 NSCLC
ACHN renal = test system: ACHN renal
SF-295 CNS = test system: SF-295 CNS

## COC(=O)NN=C(c1ccc(Cl)cc1)c1ccc(Cl)cc1
HL-60(TB) leukemia
  TGI: > 100 µM
UACC-62 melanoma
  TGI: > 100 µM
BT-549 breast
  TGI: > 100 µM
786-0 renal
  TGI: > 100 µM
KM12 colon
  TGI: > 100 µM
NCI-H226 lung
  TGI: > 100 µM
HCC-2998 colon
  TGI: > 100 µM
MOLT-4 leukemia
  TGI: > 100 µM
NCI/ADR-RES ovarian
  TGI: > 100 µM
SF-268 CNS
  TGI: > 100 µM
NCI-H23 lung
  TGI: > 100 µM
SN12C renal
  TGI: > 100 µM
HCT-15 colon
  TGI: > 100 µM
MDA-MB-231 breast
  TGI: > 100 µM
MDA-MB-435
  TGI: > 100 µM
M14 melanoma
  TGI: > 100 µM
PC-3 prostate
  TGI: > 100 µM
TK-10 renal
  TGI: > 100 µM
SK-MEL-28 melanoma
  TGI: > 100 µM
U251 CNS
  TGI: > 100 µM
MCF7 breast
  TGI: > 100 µM
RPMI-8226 leukemia
  TGI: > 100 µM
NCI-H460 lung
  TGI: > 100 µM
OVCAR-8 ovarian
  TGI: > 100 µM
MALME-3M melanoma
  TGI: > 100 µM
UACC-257 melanoma
  TGI: > 100 µM
LOX IMVI melanoma
  TGI: > 100 µM
HCT-116 colon
  TGI: > 100 µM
MDA-N
  TGI: > 100 µM
NCI-H522 lung
  TGI: > 100 µM
IGROV1 ovarian
  TGI: > 100 µM
RXF 393 renal
  TGI: > 100 µM
UO-31 renal
  TGI: > 100 µM
HT29 colon
  TGI: > 100 µM
HS 578T breast
  TGI: > 100 µM
A549 NSCLC
  TGI: > 100 µM
A498 renal
  TGI: > 100 µM
COLO 205 colon
  TGI: > 100 µM
SK-MEL-5 melanoma
  TGI: > 100 µM
K-562 leukemia
  TGI: > 100 µM
SNB-19 CNS
  TGI: > 100 µM
EKVX NSCLC
  TGI: > 100 µM
SW-620 colon
  TGI: > 100 µM
SR leukemia
  TGI: > 100 µM
OVCAR-5 ovarian
  TGI: > 100 µM
OVCAR-4 ovarian
  TGI: > 100 µM
DU-145 prostate
  TGI: > 100 µM
OVCAR-3 ovarian
  TGI: > 100 µM
SK-MEL-2 melanoma
  TGI: > 100 µM
SNB-75 CNS
  TGI: > 100 µM
CAKI-1 renal
  TGI: > 100 µM
T-47D breast
  TGI: > 100 µM
CCRF-CEM leukemia
  TGI: > 100 µM
SF-539 CNS
  TGI: > 100 µM
SK-OV-3 ovarian
  TGI: > 100 µM

## CCN(CC)Cc1nc(C2CCC([N+](=O)[O-])O2)no1 (centres undefined)
HL-60(TB) leukemia
  TGI: 40.5 µM
UACC-62 melanoma
  TGI: 30.7 µM
BT-549 breast
  TGI: 56.7 µM
786-0 renal
  TGI: > 100 µM
KM12 colon
  TGI: > 100 µM
NCI-H226 lung
  TGI: > 100 µM
HCC-2998 colon
  TGI: 42.4 µM
MOLT-4 leukemia
  TGI: > 100 µM
NCI/ADR-RES ovarian
  TGI: 76.3 µM
SF-268 CNS
  TGI: 79.6 µM
NCI-H23 lung
  TGI: 41.7 µM
SN12C renal
  TGI: > 100 µM
HOP-92 NSCLC
  TGI: > 100 µM
HCT-15 colon
  TGI: 38.1 µM
MDA-MB-231 breast
  TGI: > 100 µM
MDA-MB-435
  TGI: 35.7 µM
M14 melanoma
  TGI: 28.3 µM
PC-3 prostate
  TGI: > 100 µM
TK-10 renal
  TGI: > 100 µM
SK-MEL-28 melanoma
  TGI: 53.8 µM
U251 CNS
  TGI: 62.3 µM
MCF7 breast
  TGI: 32.2 µM
RPMI-8226 leukemia
  TGI: > 100 µM
NCI-H460 lung
  TGI: 44.5 µM
OVCAR-8 ovarian
  TGI: > 100 µM
HOP-62 NSCLC
  TGI: 82.7 µM
MALME-3M melanoma
  TGI: 30.1 µM
UACC-257 melanoma
  TGI: 40.8 µM
LOX IMVI melanoma
  TGI: > 100 µM
HCT-116 colon
  TGI: 60.4 µM
MDA-N
  TGI: 37.5 µM
NCI-H522 lung
  TGI: 31 µM
ACHN renal
  TGI: > 100 µM
IGROV1 ovarian
  TGI: > 100 µM
RXF 393 renal
  TGI: 86.8 µM
UO-31 renal
  TGI: > 100 µM
HT29 colon
  TGI: 44.5 µM
HS 578T breast
  TGI: 82.4 µM
A549 NSCLC
  TGI: > 100 µM
COLO 205 colon
  TGI: 30.3 µM
SK-MEL-5 melanoma
  TGI: 30.2 µM
K-562 leukemia
  TGI: > 100 µM
SNB-19 CNS
  TGI: 87.8 µM
EKVX NSCLC
  TGI: > 100 µM
SW-620 colon
  TGI: 35.9 µM
SR leukemia
  TGI: > 100 µM
OVCAR-5 ovarian
  TGI: 84.2 µM
OVCAR-4 ovarian
  TGI: > 100 µM
DU-145 prostate
  TGI: > 100 µM
OVCAR-3 ovarian
  TGI: 56.7 µM
SK-MEL-2 melanoma
  TGI: 72.6 µM
SF-295 CNS
  TGI: > 100 µM
SNB-75 CNS
  TGI: 96.6 µM
CAKI-1 renal
  TGI: > 100 µM
T-47D breast
  TGI: 98 µM
CCRF-CEM leukemia
  TGI: > 100 µM
SF-539 CNS
  TGI: 49 µM
SK-OV-3 ovarian
  TGI: > 100 µM

## O=C(CCc1ccc(O)c(O)c1)NCCc1cc(OCc2ccccc2)cc(OCc2ccccc2)c1
HL-60(TB) leukemia
  TGI: 7.27 µM
UACC-62 melanoma
  TGI: 47.4 µM
BT-549 breast
  TGI: 20.2 µM
786-0 renal
  TGI: 40 µM
KM12 colon
  TGI: 34.7 µM
NCI-H226 lung
  TGI: 48.2 µM
HCC-2998 colon
  TGI: 23.5 µM
NCI/ADR-RES ovarian
  TGI: 64 µM
SF-268 CNS
  TGI: 42.3 µM
NCI-H23 lung
  TGI: 31 µM
SN12C renal
  TGI: 28.6 µM
HOP-92 NSCLC
  TGI: 35.6 µM
HCT-15 colon
  TGI: 11 µM
MDA-MB-231 breast
  TGI: 48.8 µM
MDA-MB-435
  TGI: 60.8 µM
M14 melanoma
  TGI: 34 µM
PC-3 prostate
  TGI: 29.8 µM
TK-10 renal
  TGI: 41.5 µM
SK-MEL-28 melanoma
  TGI: 46.3 µM
U251 CNS
  TGI: > 100 µM
MCF7 breast
  TGI: 32.2 µM
RPMI-8226 leukemia
  TGI: > 100 µM
NCI-H460 lung
  TGI: 20.2 µM
OVCAR-8 ovarian
  TGI: 43.4 µM
HOP-62 NSCLC
  TGI: 37 µM
UACC-257 melanoma
  TGI: > 100 µM
LOX IMVI melanoma
  TGI: 34.5 µM
HCT-116 colon
  TGI: 31.6 µM
MDA-N
  TGI: 29.2 µM
NCI-H522 lung
  TGI: 4.62 µM
ACHN renal
  TGI: 19.3 µM
IGROV1 ovarian
  TGI: 22.5 µM
RXF 393 renal
  TGI: 36.8 µM
UO-31 renal
  TGI: 12.6 µM
HT29 colon
  TGI: 77.8 µM
HS 578T breast
  TGI: 40.2 µM
A549 NSCLC
  TGI: > 100 µM
A498 renal
  TGI: 37.7 µM
COLO 205 colon
  TGI: 14.6 µM
SK-MEL-5 melanoma
  TGI: 28.7 µM
K-562 leukemia
  TGI: > 100 µM
SNB-19 CNS
  TGI: 18 µM
EKVX NSCLC
  TGI: 29.3 µM
SW-620 colon
  TGI: 76.1 µM
SR leukemia
  TGI: 7.18 µM
OVCAR-5 ovarian
  TGI: 30.1 µM
DU-145 prostate
  TGI: 32.3 µM
OVCAR-3 ovarian
  TGI: > 100 µM
SK-MEL-2 melanoma
  TGI: 42 µM
SF-295 CNS
  TGI: 38.9 µM
SNB-75 CNS
  TGI: 22.2 µM
CAKI-1 renal
  TGI: 17.7 µM
T-47D breast
  TGI: 58.2 µM
CCRF-CEM leukemia
  TGI: 11.5 µM
SF-539 CNS
  TGI: 30.1 µM
SK-OV-3 ovarian
  TGI: 31.3 µM
